US20090028925A1, “Novel Phosphinic Acid-Containing Thyromimetics” (priority 2005, published 2009)

Legend:
[1] = set-up: species or system rats; settings: in vivo, po
Method: The oral bioavailability (OBAV) of Compound 12-1, a bis POM prodrug of Compound 7, was estimated by comparison of the dose-normalized area under the curve (AUC) of the plasma concentration-time profile of Compound 7 following IV and PO administration of Compound 7 and Compound 12-1, respectively, to normal rats.
Method: Groups of non-fasted male SD rats were administered either 5 mg/kg of Compound 7 by IV bolus or 20 mg/kg of Compound 12-1 by oral gavage. Prior to drug administration, the rats were catheterized at the tail artery to facilitate blood collection. Plasma samples were obtained at pre-specified time points following dosing, extracted with 1.5 volumes of methanol, and then assayed by an LC-UV method using a C18 column eluted with a gradient of 20% to 45% v/v acetonitrile in a potassium phosphate buffer pH 6.2 over 15 min with UV absorbance monitoring at 280 nm. The AUC values were determined noncompartmentally from the plasma concentration-time plots by trapezoidal summation to the last measurable time point.
Plasma levels of compound were analyzed by HPLC and the AUCs for the i.v. dose of 5 mg/kg and the p.o. dose of 20 mg/kg were compared. The maximum OBAV for Compound 19-2 was 0.003%. Typically, compounds that are taken forward as an oral drug candidate have OBAV values of at least 15-20%, when tested in an animal model. This minimal requirement for OBAV in a genetically homogenous model system insures that exposure can be accurately monitored when humans are treated with the compound. Furthermore, in a genetically variable background such as humans, the variability for a compound with low OBAV in genetically homogenous model systems, can be widely variable, leading some subjects to have much higher than anticipated exposure, while other subjects have no exposure.

[2] = target: T1, human thyroid hormone receptors TRα1 (Homo sapiens, UniProt P10827); experiment: Receptor binding to TRα1 (gel filtration and scintillation proximity assay, labeled T3); settings: SPA data; read-out: Ki TRα
T1 construct: made in house; host or cells: Sf9 insect cells (baculovirus)
T1 sequence (P10827 1-410 isoform P10827-2): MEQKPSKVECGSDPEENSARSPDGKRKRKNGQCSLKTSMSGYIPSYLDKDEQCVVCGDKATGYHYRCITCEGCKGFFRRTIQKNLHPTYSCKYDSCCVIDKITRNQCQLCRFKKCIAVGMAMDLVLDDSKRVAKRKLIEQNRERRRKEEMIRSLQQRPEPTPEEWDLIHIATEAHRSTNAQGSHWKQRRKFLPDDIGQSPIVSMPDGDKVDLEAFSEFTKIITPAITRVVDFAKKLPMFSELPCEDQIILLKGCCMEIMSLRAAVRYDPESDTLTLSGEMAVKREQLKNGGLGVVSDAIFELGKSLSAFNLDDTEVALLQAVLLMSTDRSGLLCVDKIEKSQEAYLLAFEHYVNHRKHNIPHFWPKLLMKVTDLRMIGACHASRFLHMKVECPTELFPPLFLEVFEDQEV
T1 sequence (P19793 1-462 partner): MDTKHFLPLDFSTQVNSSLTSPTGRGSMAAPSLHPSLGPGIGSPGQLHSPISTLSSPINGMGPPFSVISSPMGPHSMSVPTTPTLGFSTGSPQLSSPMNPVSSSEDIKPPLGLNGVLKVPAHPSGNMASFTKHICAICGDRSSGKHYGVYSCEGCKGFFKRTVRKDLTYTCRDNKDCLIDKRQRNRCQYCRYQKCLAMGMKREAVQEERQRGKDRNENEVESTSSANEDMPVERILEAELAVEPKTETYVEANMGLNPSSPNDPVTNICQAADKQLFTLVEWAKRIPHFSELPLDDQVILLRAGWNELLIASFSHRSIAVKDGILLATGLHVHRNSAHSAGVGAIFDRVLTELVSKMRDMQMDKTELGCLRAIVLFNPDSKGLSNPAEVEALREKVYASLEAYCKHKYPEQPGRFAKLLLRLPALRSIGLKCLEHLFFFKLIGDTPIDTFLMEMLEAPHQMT

[3] = target: T2, human thyroid hormone receptors TRβ1 (Homo sapiens, UniProt P10828); experiment: Receptor binding to TRβ1 (gel filtration and scintillation proximity assay, labeled T3); settings: SPA data; read-out: Ki TRβ
T2 construct: made in house; host or cells: Sf9 insect cells (baculovirus)
T2 sequence (P10828 1-461): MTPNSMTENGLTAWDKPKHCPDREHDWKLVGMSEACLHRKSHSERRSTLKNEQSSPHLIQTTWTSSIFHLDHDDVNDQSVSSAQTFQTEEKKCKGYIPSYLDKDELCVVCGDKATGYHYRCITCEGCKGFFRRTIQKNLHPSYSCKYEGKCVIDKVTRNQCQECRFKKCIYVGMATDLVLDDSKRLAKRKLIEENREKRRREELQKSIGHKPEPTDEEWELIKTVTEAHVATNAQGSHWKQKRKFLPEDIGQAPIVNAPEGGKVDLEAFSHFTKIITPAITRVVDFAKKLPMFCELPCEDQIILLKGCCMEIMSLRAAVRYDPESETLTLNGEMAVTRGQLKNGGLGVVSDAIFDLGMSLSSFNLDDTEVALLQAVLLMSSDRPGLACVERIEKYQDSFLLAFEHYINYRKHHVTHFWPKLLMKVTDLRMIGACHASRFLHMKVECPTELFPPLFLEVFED
T2 sequence (P19793 1-462 partner): T1 sequence (P19793 1-462 partner)

[4] = effects on cholesterol and TSH at the same or not pharmacologically different doses; cited from earlier work
[5] = test system: CYP3A (cytochrome P450-3A (CYP3A4)); experiment: Prodrug activation in rat liver microsomes; format: in vitro ADME; settings: liver microsomes from dexamethasone-treated rats; dexamethasone treated rat microsomes, formation of Compound 7
Excerpt: (§1) The purpose of these studies was to determine the kinetics of activation of prodrugs of thyromimetics in microsomal preparations. Microsomes contain the P450 enzyme that is required for the activation of many of the prodrugs prepared. The Km, Vmax, and intrinsic clearance values determined are measures of prodrug affinity for the microsomal enzymes, the rate at which the prodrug is activated, and the catalytic efficiency with which the prodrug is activated, respectively.
(§2) Methods: Activation of prodrugs by dexamethasone treated rat hepatocyte microsomes. Microsomes were isolated by standard differential centrifugation methods from dexamethasone-treated rats. The treatment is to increase cytochrome P450-3A (CYP3A4) activity. Induction of CYP3A4 was confirmed by an increase in testosterone hydroxylation.
(§3) Various concentrations of HepDirect™ Compound 7 were incubated with rat hepatocytes microsomes. Compound 7 formation was analyzed by HPLC using UV-Vis detection. Kinetic parameters (Vmax and Km) were calculated from the transformed data and the intrinsic clearance calculated from the kinetic parameters.

[6] = Prodrug activation in rat liver microsomes; format: in vitro ADME; settings: for Vmax: dexamethasone treated rat microsomes, formation of Compound 7; for microsomal CLint: rat, liver microsomes from dexamethasone-treated rats, intrinsic clearance calculated from the kinetic parameters
Excerpt: as §1, §2, §3

Structure (SMILES) | absorption in the rat [1] | Ki [2] [nM] | Ki [3] [nM] | TSH levels [4] | cholesterol levels [4] | Km [5] [µM] | Vmax [6] [pmol/min/mg] | microsomal CLint [6] [µL/min/mg]
Cc1cc(OCP(=O)(OCOC(=O)C(C)(C)C)OCOC(=O)C(C)(C)C)cc(C)c1Cc1ccc(O)c(C(C)C)c1 [Compound 12-1, di(pivaloyloxymethyl) [3,5-Dimethyl-4-(4′-hydroxy-3′-iso-propylbenzyl)phenoxy]methylphosphonate] | adequately absorbed | 1670 | 662 | – | – | – | – | –
Cc1cc(OCC(=O)O)cc(C)c1Cc1ccc(O)c(C(C)C)c1 [GC-1, [4-[[4-hydroxy-3-(1-methylethyl)phenyl]methyl]-3,5-dimethylphenoxy]acetic acid] | – | – | – | dose-dependently lower | dose-dependently lower | – | – | –
Cc1cc(OC[P@@]2(=O)OCC[C@@H](c3cccnc3)O2)cc(C)c1Cc1ccc(O)c(C(C)C)c1 [Compound 13-4-cis, 2-[(3,5-dimethyl-4-(4′-hydroxy-3′-iso-propylbenzyl)phenoxy)methyl]-4-(pyrid-3-yl)-2-oxo-2λ^5-[1,3,2]-dioxaphosphonane] | – | 5530 | 1520 | – | – | 100 | 2983 | 30
Cc1cc(OC[P@@]2(=O)OCC[C@@H](c3cccc(Br)c3)O2)cc(C)c1Cc1ccc(O)c(C(C)C)c1 [Compound 13-2-cis, 2-[(3,5-dimethyl-4-(4′-hydroxy-3′-iso-propylbenzyl)phenoxy)methyl]-4-(3-bromophenyl)-2-oxo-2λ^5-[1,3,2]-diox aphosphonane] | – | 488 | 419 | – | – | 8 | 694 | 86
CC(C)c1cc(Oc2c(Br)cc(CP(=O)(O)O)cc2Br)ccc1O [Compound 19-2, [3,5-dibromo-4-(4′-hydroxy-3′-iso-propylphenoxy)]benzylphosphonic Acid] | not adequately absorbed | 343 | 20 | – | – | – | – | –
Cc1cc(OC[P@]2(=O)OCC[C@H](c3ccc(Cl)cc3)O2)cc(C)c1Cc1ccc(O)c(C(C)C)c1 [Compound 13-6-cis, 2-[(3,5-dimethyl-4-(4′-hydroxy-3′-iso-propylbenzyl)phenoxy)methyl]-4-(4-chlorophenyl)-2-oxo-2λ^5-[1,3,2]-dioxaphosphonane] | – | 4710 | 3590 | – | – | 10 | 598 | 62
Cc1cc(OC[P@@]2(=O)OCC[C@@H](c3ccncc3)O2)cc(C)c1Cc1ccc(O)c(C(C)C)c1 [Compound 13-5-cis, 2-[(3,5-dimethyl-4-(4′-hydroxy-3′-iso-propylbenzyl)phenoxy)methyl]-4-(pyrid-4-yl)-2-oxo-2λ^5-[1,3,2]-dioxaphosphonane] | – | 4430 | 1010 | – | – | 113 | 3266 | 29
Cc1cc(OCP(=O)(OCOC(=O)OC(C)C)OCOC(=O)OC(C)C)cc(C)c1Cc1ccc(O)c(C(C)C)c1 [Compound 12-3, di(isopropoxycarbonyloxymethyl)[3,5-dimethyl-4-(4′-hydroxy-3′-iso-propylbenzyl)phenoxy]methylphosphonate] | – | 738 | 156 | – | – | 14 | 775 | 54
